The values that follow come from US7456197B2, “Pyridinium cationic lipids as gene transfer agents” (The Texas A&M University System, priority 2003, dated 2008).

The data set can be described thus: Critical (phase transition) temperature Tc by differential scanning calorimetry. To be noted: for Tc (phase transition temperature): lipids 21 and 25, DSC, heating rate 5° C./minute; for Tc (critical temperature), Pure: pure lipid. It counts as physicochemical. On the procedure:
General. Melting points for the diols and the phase transition temperature Tc for the cationic lipids were determined by differential scanning calorimetry (DSC), using a TA-Instruments Q100 DSC, and a heating rate of 5° C./minute. The IR spectra were recorded on a Nicolet Avatar 360 FTIR spectrophotometer in the range 650-4000 cm^−1 using a ZnSe—attenuated total reflectance (ATR) accessory. The compounds were solved in a small amount of solvent (MeOH for the diols, CHCl3 for the lipids), and the resulted solutions were left to evaporate to dryness on the surface of the ZnSe crystals of the ATR accessory. The NMR spectra were recorded at ≈303 K with a Varian Inova spectrometer equipped with a 5 mm indirect detection probe, operating at 500 MHz for ^1H-NMR and at 125 MHz for ^13C-NMR. Chemical shifts are reported as δ values, using TMS as internal standard for proton spectra and the solvent resonance for carbon spectra. Assignments were made based on signal intensity, selective decoupling, COSY (^1H-^1H) and HETCOR (^1H-^13C) sequences. Elemental analyses were performed by combustion, using a Perkin Elmer 2400 Series II CHNS analyser.
Dioleoylphosphatidylethanolamine (DOPE), cholesterol (CHOL), N-(2,3-dioleoyloxypropyl)-N,N,N-trimethylammonium chloride (DOTAP) were commercial products. The purity of the lipids was checked by thin layer chromatography and also by differential scanning calorimetry (DSC), which was also used for determining the critical temperature Tc. For the preparation of the liposomes a protocol optimized for this type of compounds was adopted as follows. The cationic lipid (with or without helper lipid) was dissolved in chloroform/methanol (2/1, v/v) to reach a final concentration of 1 mM for the charged species. From this stock solution 50 μL were aliquoted in a 1 mL tube and the solvent was evaporated in a SpeedVac evaporator, under vacuum, for 1 h. The dried lipid film was prepared by removing the traces of organic solvent in a dessicator, over Drierite®, under vacuum, overnight. The film was hydrated with 500 μL sterile phosphate buffer saline (PBS) the tube was purged with sterile N2, and vortexed for 1 minute. The liposomes were generated by sonicating the tube in a water bath sonicator for 5-30 minutes at 62° C. and at 37° C. for DOTAP. After sonication the preparations were allowed to reach room temperature.
Materials and Methods. Melting points for the diols, acetates and ketals were determined on a Boetius heating plate microscope and are uncorrected. For the cationic lipids 21 and 25 the phase transition temperature Tc was determined by differential scanning calorimetry (DSC), using a TA-Instruments Q100 DSC, and a heating rate of 5° C./minute. The IR spectra were recorded on a Nicolet Avatar 360 FTIR spectrophotometer, in the range 650-4000 cm^−1, using a ZnSe—attenuated total reflectance (ATR) accessory. The compounds were solved in a small amount of solvent (MeOH for the diols, CHCl3 for the esters), the resulted solutions being left to evaporate to dryness on the surface of the ZnSe crystals of the ATR accessory. This technique was imposed by the poor results obtained in transmission mode for some of the compounds, due to the lack of crystallization, hygroscopicity and other problems related with working with KBr pellets. The NMR spectra were recorded at ≈303 K with a Varian Gemini 300BB spectrometer operating at 300 MHz for ^1H and at 75 MHz for ^13C. Chemical shifts are reported as δ values, using TMS as internal standard for proton spectra and the solvent resonance for carbon spectra: 77.00 ppm in CDCl3, 39.50 ppm in DMSO-d6, the line from 123.50 ppm in pyridine-d5, 62.80 ppm in nitromethane-d3, 30.10 ppm in dimethylformamide-d7. Assignments were made based on signal intensity, selective decoupling and COSY (^1H-^1H) and HETCOR (^1H-^13C) sequences. Nitrogen elemental analysis was performed by combustion, mixing the samples with small amounts of quartz sand.

On to `CCCCCCCCCCCCCCCC(=O)OCC(C[n+]1c(C)cc(C)cc1C)OC(=O)CCCCCCCCCCCCCCC.[O-][Cl+3]([O-])([O-])[O-]` (stereo not shown) [Lipid 21AaP, 1-(2,3-Dipamitoyloxypropyl)-2,4,6-trimethylpyridinium perchlorate], for which the “Tc (phase transition temperature)” value was found to be 106 °C. As to `CCCCCCCCCCCCCCCCCC(=O)OCC(C[n+]1c(C)cc(C)cc1C)OC(=O)CCCCCCCCCCCCCCCCC.F[P-](F)(F)(F)(F)F` (stereo not shown) [Lipid 3ASte, 1-(2,3-distearoyloxypropyl)-2,4,6-trimethylpyridinium hexafluorophosphate], the “Tc (critical temperature), Pure” value is 122.5 °C and the “Tc (critical temperature), With cholesterol (1:1 molar ratio)” value (from here on “Tc … (1:1 molar ratio)”) amounted to 112.7 °C. In the case of `CCCCCCCC/C=C\CCCCCCCC(=O)OCC(COC(=O)CCCCCCC/C=C\CCCCCCCC)[n+]1c(C)cc(C)cc1C.[O-][Cl+3]([O-])([O-])[O-]` [Lipid 25AaO, 1-(1,3-Dioleoyloxypropane-2-yl)-2,4,6-trimethylpyridinium perchlorate], the “Tc (phase transition temperature)” value amounted to 48 °C. On to `CCCCCCCCCCCCCC(=O)Oc1ccc(CC[n+]2c(C)cc(C)cc2C)cc1OC(=O)CCCCCCCCCCCCC.F[P-](F)(F)(F)(F)F` [Lipid 7AMyr, 1-(3,4-dimyristoyloxyphenylethyl)-2,4,6-trimethylpyridinium hexafluorophosphate], for which the “Tc (critical temperature), Pure” value came out at 141.2 °C and the “Tc … (1:1 molar ratio)” value came to 125.8 °C. In the case of `CCCCCCCCCCCCCCCC(=O)OCC(C[n+]1c(C)cc(C)cc1C)OC(=O)CCCCCCCCCCCCCCC.F[B-](F)(F)F` (stereo not shown) [Lipid 21AbP, 1-(2,3-Dipamitoyloxypropyl)-2,4,6-trimethylpyridinium tetrafluoroborate], the “Tc (phase transition temperature)” value came out at 100 °C. For the compound `CCCCCCCC/C=C\CCCCCCCC(=O)OCC(COC(=O)CCCCCCC/C=C\CCCCCCCC)[n+]1c(C)cc(C)cc1C.F[B-](F)(F)F` [Lipid 25AbO, 1-(1,3-Dioleoyloxypropane-2-yl)-2,4,6-trimethylpyridinium tetrafluoroborate], the “Tc (phase transition temperature)” value worked out at 43 °C. In the case of `CCCCCCCCCC(=O)Oc1ccc(CC[n+]2c(C)cc(C)cc2C)cc1OC(=O)CCCCCCCCC.F[P-](F)(F)(F)(F)F` [Lipid 7ACpc, 1-(3,4-didecanoyloxyphenylethyl)-2,4,6-trimethylpyridinium hexafluorophosphate], the “Tc (critical temperature), Pure” value stood at 140.0 °C and the “Tc … (1:1 molar ratio)” value is 129.2 °C.

Turning to `CCCCCCCCCCCCCCCCCC(=O)Oc1ccc(CC[n+]2c(C)cc(C)cc2C)cc1OC(=O)CCCCCCCCCCCCCCCCC.F[P-](F)(F)(F)(F)F` [Lipid 7ASte, 1-(3,4-distearoyloxyphenylethyl)-2,4,6-trimethylpyridinium hexafluorophosphate], the “Tc (critical temperature), Pure” value stood at 138.8 °C and the “Tc … (1:1 molar ratio)” value was 123.9 °C. For the compound `CCCCCCCCCCCCCCCC(=O)OCC(COC(=O)CCCCCCCCCCCCCCC)[n+]1c(C)cc(C)cc1C.F[P-](F)(F)(F)(F)F` [Lipid 5APal, 1-(1,3-dipamitoyloxypropane-2-yl)-2,4,6-trimethylpyridinium hexafluorophosphate], the “Tc (critical temperature), Pure” value worked out at 75.5 °C and the “Tc … (1:1 molar ratio)” value was found to be 61.0 °C. The matching figures for `CCCCCCCCCCCC(=O)OCC(COC(=O)CCCCCCCCCCC)[n+]1c(C)cc(C)cc1C.F[P-](F)(F)(F)(F)F` [Lipid 5ALau, 1-(1,3-dilauroyloxypropane-2-yl)-2,4,6-trimethylpyridinium hexafluorophosphate]: 58.2 °C and 41.9 °C.

On to `CCCCCCCCCCCC(=O)OCC(C[n+]1c(C)cc(C)cc1C)OC(=O)CCCCCCCCCCC.F[P-](F)(F)(F)(F)F` (stereo not shown) [Lipid 3ALau, 1-(2,3-dilauroyloxypropyl)-2,4,6-trimethylpyridinium hexafluorophosphate], for which the “Tc (critical temperature), Pure” value was determined as 114.0 °C and the “Tc … (1:1 molar ratio)” value came out at 106.7 °C. With `CCCCCCCCCCCCCCCC(=O)OCC(COC(=O)CCCCCCCCCCCCCCC)[n+]1c(C)cc(C)cc1C.[O-][Cl+3]([O-])([O-])[O-]` [Lipid 25AaP, 1-(1,3-Dipamitoyloxypropane-2-yl)-2,4,6-trimethylpyridinium perchlorate], the “Tc (phase transition temperature)” value is 66 °C.

With `CCCCCCCCCCCCCCCCCC(=O)OCC(C[n+]1c(C)cc(C)cc1C)OC(=O)CCCCCCCCCCCCCCCCC.[O-][Cl+3]([O-])([O-])[O-]` (stereo not shown) [Lipid 21AaS, 1-(2,3-Distearoyloxypropyl)-2,4,6-trimethylpyridinium perchlorate], the “Tc (phase transition temperature)” value was 110 °C. For `CCCCCCCCCCCCCCCCCC(=O)OCC(COC(=O)CCCCCCCCCCCCCCCCC)[n+]1c(C)cc(C)cc1C.F[B-](F)(F)F` [Lipid 25AbS, 1-(1,3-Distearoyloxypropane-2yl)-2,4,6-trimethylpyridinium tetrafluoroborate], the “Tc (phase transition temperature)” value stood at 73 °C.

As for `CCCCCCCCCCCCCCCCCC(=O)OCC(COC(=O)CCCCCCCCCCCCCCCCC)[n+]1c(C)cc(C)cc1C.[O-][Cl+3]([O-])([O-])[O-]` [Lipid 25AaS, 1-(1,3-Distearoyloxypropane-2-yl)-2,4,6-trimethylpyridinium perchlorate], the “Tc (phase transition temperature)” value is 70 °C.

Turning to `CCCCCCCCCCCCCCCCCC(=O)OCC(C[n+]1c(C)cc(C)cc1C)OC(=O)CCCCCCCCCCCCCCCCC.F[B-](F)(F)F` (stereo not shown) [Lipid 21AbS, 1-(2,3-Distearoyloxypropyl)-2,4,6-trimethylpyridinium tetrafluoroborate], the “Tc (phase transition temperature)” value turned out to be 103 °C.

With `CCCCCCCCCCCCCCCC(=O)OCC(C[n+]1c(C)cc(C)cc1C)OC(=O)CCCCCCCCCCCCCCC.F[P-](F)(F)(F)(F)F` (stereo not shown) [Lipid 3APal, 1-(2,3-dipamitoyloxypropyl)-2,4,6-trimethylpyridinium hexafluorophosphate], the “Tc (critical temperature), Pure” value came out at 123.5 °C and the “Tc … (1:1 molar ratio)” value turned out to be 114.0 °C. On to `CCCCCCCC/C=C\CCCCCCCC(=O)OCC(C[n+]1c(C)cc(C)cc1C)OC(=O)CCCCCCC/C=C\CCCCCCCC.[O-][Cl+3]([O-])([O-])[O-]` (stereo not shown) [Lipid 21AaO, 1-(2,3-Dioleoyloxypropyl)-2,4,6-trimethylpyridinium perchlorate], for which the “Tc (phase transition temperature)” value amounted to 57 °C. As to `CCCCCCCCCCCCCCCC(=O)OCC(C[n+]1c(-c2ccccc2)cc(-c2ccccc2)cc1-c1ccccc1)OC(=O)CCCCCCCCCCCCCCC.[O-][Cl+3]([O-])([O-])[O-]` (stereo not shown) [Lipid 21BaP, 1-(2,3-Dipalmitoyloxypropyl)-2,4,6-triphenylpyridinium perchlorate], the “Tc (phase transition temperature)” value amounted to 134 °C. Take `CCCCCCCC/C=C\CCCCCCCC(=O)Oc1ccc(CC[n+]2c(C)cc(C)cc2C)cc1OC(=O)CCCCCCC/C=C\CCCCCCCC.F[P-](F)(F)(F)(F)F` [Lipid 7AOle, 1-(3,4-dioleoyloxyphenylethyl)-2,4,6-trimethylpyridinium hexafluorophosphate]: the “Tc (critical temperature), Pure” value came to 106.8 °C and the “Tc … (1:1 molar ratio)” value was found to be 97.3 °C. As to `CCCCCCCC(=O)Oc1ccc(CC[n+]2c(C)cc(C)cc2C)cc1OC(=O)CCCCCCC.F[P-](F)(F)(F)(F)F` [Lipid 7ACpy, 1-(3,4-dioctanoyloxyphenylethyl)-2,4,6-trimethylpyridinium hexafluorophosphate], the “Tc (critical temperature), Pure” value amounted to 134.1 °C and the “Tc … (1:1 molar ratio)” value is 127.3 °C.
